Laboratory results published in US20220289708A1, “SUBSTITUTED N-PHENYL URACILS, SALTS THEREOF AND THEIR USE AS HERBICIDAL AGENTS” (Bayer Aktiengesellschaft, priority 2019, published 2022).

How the values were obtained:
Assay type in all cases: in vivo
[1] = tested on: Polygonum convolvulus; experiment: Pre-emergence herbicidal action; conditions: application rate 20 g/ha
In short: (§1)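 Percentages are visual ratings against untreated controls, where 100% means dead plants and 0% means no difference. Compounds were applied at 80 g/ha or lower to the soil over freshly sown seeds, then pots stayed in the greenhouse about 3 weeks.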

[2] = tested on: Veronica persica; experiment: Pre-emergence herbicidal action; conditions: application rate 20 g/ha
In short: as §1

[3] = tested on: Amaranthus retroflexus; experiment: Pre-emergence herbicidal action; conditions: application rate 20 g/ha
In short: as §1

[4] = tested on: Alopecurus myosuroides; experiment: Pre-emergence herbicidal action
In short: as §1

[5] = tested on: Avena fatua; experiment: Pre-emergence herbicidal action
In short: as §1

[6] = tested on: Digitaria sanguinalis; experiment: Pre-emergence herbicidal action; conditions: application rate 20 g/ha
In short: as §1

[7] = tested on: Abutilon theophrasti; experiment: Pre-emergence herbicidal action; conditions: application rate 20 g/ha
In short: as §1

[8] = tested on: Matricaria inodora; experiment: Pre-emergence herbicidal action; conditions: application rate 20 g/ha
In short: as §1

[9] = tested on: Pharbitis purpurea; experiment: Pre-emergence herbicidal action; conditions: application rate 20 g/ha
In short: as §1

[10] = tested on: Viola tricolor; experiment: Pre-emergence herbicidal action; conditions: application rate 20 g/ha
In short: as §1

[11] = tested on: Lolium rigidum; experiment: Pre-emergence herbicidal action; conditions: application rate 80 g/ha
In short: as §1

[12] = tested on: Echinochloa crus-galli; experiment: Pre-emergence herbicidal action
In short: as §1

[13] = tested on: Setaria viridis; experiment: Pre-emergence herbicidal action; conditions: application rate 20 g/ha
In short: as §1

[14] = tested on: Glycine max; experiment: Pre-emergence crop plant compatibility; conditions: application rate 20 g/ha, observed effect on crop vs untreated controls after about 3 weeks
In short: (§2)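 Crop seeds sown in pots and covered with soil; WP or EC formulations sprayed on the soil surface as aqueous suspension/emulsion with 0.5% additive at 600 l/ha water, 20 g/ha. Greenhouse-grown about 3 weeks, then damage scored visually as % versus untreated controls (100% = plants dead).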

[15] = tested on: Triticum aestivum; experiment: Post-emergence crop plant compatibility; conditions: application rate 5 g/ha
In short: (§3)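 Greenhouse crop plants in sandy loam sprayed at one-leaf stage (2-3 weeks after sowing) with WP or EC formulations plus 0.5% additive, 600 l/ha water, at 5 g/ha or 20 g/ha. Damage scored visually after about 3 weeks as % versus untreated controls (100% = plants dead).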

[16] = tested on: Oryza sativa; experiment: Post-emergence crop plant compatibility; conditions: application rate 5 g/ha
In short: as §3

[17] = tested on: Veronica persica; experiment: Post-emergence herbicidal action; conditions: application rate 5 g/ha
In short: (§4)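 Percent activity, judged by eye about 3 weeks after treatment relative to untreated plants, ranges from 0% (as control) to 100% (plants dead). Foliar application at 20 g/ha and less was made at the one-leaf stage using a 600 l/ha aqueous spray containing 0.5% additive.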

[18] = tested on: Amaranthus retroflexus; experiment: Post-emergence herbicidal action; conditions: application rate 5 g/ha, rated visually after about 3 weeks vs untreated controls
In short: as §4

[19] = tested on: Digitaria sanguinalis; experiment: Post-emergence herbicidal action; conditions: application rate 5 g/ha, rated visually after about 3 weeks vs untreated controls
In short: as §4

[20] = tested on: Abutilon theophrasti; experiment: Post-emergence herbicidal action; conditions: application rate 5 g/ha, rated visually after about 3 weeks vs untreated controls
In short: as §4

[21] = tested on: Pharbitis purpurea; experiment: Post-emergence herbicidal action; conditions: application rate 5 g/ha, rated visually after about 3 weeks vs untreated controls
In short: as §4

[22] = tested on: Echinochloa crus-galli; experiment: Post-emergence herbicidal action; conditions: application rate 5 g/ha, rated visually after about 3 weeks vs untreated controls
In short: as §4

[23] = tested on: Triticum aestivum; experiment: Pre-emergence crop plant compatibility; conditions: application rate 20 g/ha
In short: as §2

[24] = tested on: Zea mays; experiment: Pre-emergence crop plant compatibility; conditions: application rate 20 g/ha
In short: as §2

[25] = tested on: Polygonum convolvulus; experiment: Post-emergence herbicidal action; conditions: application rate 5 g/ha
In short: as §4

[26] = tested on: Alopecurus myosuroides; experiment: Post-emergence herbicidal action; conditions: application rate 5 g/ha, rated visually after about 3 weeks vs untreated controls
In short: as §4

[27] = tested on: Matricaria inodora; experiment: Post-emergence herbicidal action; conditions: application rate 5 g/ha, rated visually after about 3 weeks vs untreated controls
In short: as §4

[28] = tested on: Viola tricolor; experiment: Post-emergence herbicidal action; conditions: application rate 5 g/ha
In short: as §4

[29] = tested on: Setaria viridis; experiment: Post-emergence herbicidal action; conditions: application rate 5 g/ha, rated visually after about 3 weeks vs untreated controls
In short: as §4

SMILES	Polygonum convolvulus (efficacy in %) [1] [%]	Veronica persica (efficacy in %) [2] [%]	Amaranthus retroflexus (efficacy in %) [3] [%]	Alopecurus myosuroides (efficacy in %) ([4]; application rate 80 g/ha) [%]	Avena fatua (efficacy in %) ([5]; application rate 80 g/ha) [%]	Digitaria sanguinalis (efficacy in %) [6] [%]	Abutilon theophrasti (efficacy in %) [7] [%]	Matricaria inodora (efficacy in %) [8] [%]	Pharbitis purpurea (efficacy in %) [9] [%]	Viola tricolor (efficacy in %) [10] [%]	Lolium rigidum (efficacy in %) [11] [%]	Setaria viridis (efficacy in %) [13] [%]	Glycine max (efficacy in %) [14] [%]	Triticum aestivum (efficacy in %) [15] [%]	Veronica persica (efficacy in %) [17] [%]	Amaranthus retroflexus (efficacy in %) [18] [%]	Digitaria sanguinalis (efficacy in %) [19] [%]	Abutilon theophrasti (efficacy in %) [20] [%]	Pharbitis purpurea (efficacy in %) [21] [%]	Echinochloa crus-galli (efficacy in %) [22] [%]	other results
Cn1c(C(F)(F)F)cc(=O)n(-c2cc(Oc3cccnc3OCC(=O)OCCOC(F)(F)F)c(Cl)cc2F)c1=O [I.15-41]	100	100	100	100	90	100	100	100	100	100	100	100	20	20	100	100	100	100	100	100	Echinochloa crus-galli (efficacy in %) ([12]; application rate 80 g/ha): 100%; Oryza sativa (efficacy in %) [16]: 20%
Cn1c(C(F)(F)F)cc(=O)n(-c2cc(Oc3cccnc3OCC(=O)OCC[Si](C)(C)C)c(Cl)cc2F)c1=O [I.15-211]	100	100	100	100	80	100	100	100	80	100	100	100		0	100	100	100	100	80	100	Echinochloa crus-galli (efficacy in %) ([12]; application rate 20 g/ha): 80%; Triticum aestivum (efficacy in %) [23]: 0%; Zea mays (efficacy in %) [24]: 20%; Oryza sativa (efficacy in %) [16]: 0%
Cn1c(C(F)(F)F)cc(=O)n(-c2cc(Oc3cccnc3OCC(=O)OCC3NC(=O)NC3=O)c(Cl)cc2F)c1=O (stereo not drawn) [I.15-280]	100	100	100			100	100	100	90	100	100	100	0	20	100	100	100	100	100	80	Alopecurus myosuroides (efficacy in %) ([4]; application rate 20 g/ha): 90%; Avena fatua (efficacy in %) ([5]; application rate 20 g/ha): 80%; Echinochloa crus-galli (efficacy in %) ([12]; application rate 20 g/ha): 90%; Triticum aestivum (efficacy in %) [23]: 10%; Polygonum convolvulus (efficacy in %) [25]: 100%; Alopecurus myosuroides (efficacy in %) [26]: 90%; Matricaria inodora (efficacy in %) [27]: 90%; Viola tricolor (efficacy in %) [28]: 100%; Setaria viridis (efficacy in %) [29]: 100%
